Experimental findings from ChEMBL document CHEMBL1129529, “Synthesis and antiviral activity of pyranosylphosphonic acid nucleotide analogues” (J Med Chem, 1996) are described below.

By IC50 is commonly meant the concentration at which inhibition is half-maximal. Low values mean greater potency in that assay, high ones weaker potency in that assay. By CC50 is commonly meant the concentration at which the toxic effect on the cells reaches its halfway point. Higher therefore signals better tolerance by the cells.

For experiment [1], the system named is MRC5. In words: Inhibitory activity against cytopathic effect of HSV-2(E 194) in MRC-5 cells; Not active. It counts as functional, cell-based, Homo sapiens.
Experiment [2] relates to NHDF. In words: Cytotoxic activity against NHDF cell growth; Not active. Type of experiment: functional, cell-based, Homo sapiens.
The subject of experiment [3] is NHDF. Nature of the experiment: Inhibitory activity against replication of HCMV in NHDF cells; Not active. Type of experiment: functional, cell-based, Homo sapiens.
The test system of experiment [4] is NHDF. In words: Cytotoxic activity against NHDF cell growth. It counts as functional. The settings on record: Homo sapiens.
In experiment [5] the test system is NHDF. In words: Inhibitory activity against replication of HCMV in NHDF cells. It counts as functional, cell-based. The conditions noted are these: Homo sapiens.
Experiment [6] deals with MRC5. Nature of the experiment: Inhibitory activity against cytopathic effect of HSV-2(E 194) in MRC-5 cells. The settings on record: Homo sapiens. It counts as functional, cell-based. Background: Cytopathic effects are the visible damage that an infection or toxin causes in cultured cells.
Experiment [7] in a line: Selectivity index is defined as ratio between IC50(NHDF) / IC50(HCMV). It counts as functional.

Take `Nc1nc(O)c2ncn(C3C=CC(P(=O)(O)O)OC3CO)c2n1` (stereo not given): the IC50 entry in the experiment on MRC5 [1], with NHDF [2] and with NHDF [3] was “Not Active” in each case.
`Cc1cn(C2C=CC(P(=O)(O)O)OC2C)c(=O)[nH]c1=O` (stereo not given): the IC50 entry in the experiment with MRC5 [1], with NHDF [2] and in the experiment with NHDF [3] was “Not Active” in each case.
With `Nc1ncnc2c1ncn2[C@@H]1C=C[C@@H](P(=O)(O)O)O[C@@H]1CO`, the CC50 in the experiment with NHDF [4] was over 1000 µM. The IC50 with NHDF [5] is over 300 µM; in the experiment on MRC5 [6], 300 µM.
The compound `Nc1ccn(C2CCC(P(=O)(O)O)OC2CO)c(=O)n1` (stereo not given) registered a CC50 in the experiment with NHDF [4] of over 1000 µM. Besides, the Selectivity ratio in experiment [7] is over 12. The IC50 in the experiment on NHDF [5] amounted to 80 µM.
Turning to `Nc1nc(O)c2ncn([C@@H]3CC=C(P(=O)(O)O)O[C@@H]3CO)c2n1`, the IC50 entry in the experiment with MRC5 [1], in the experiment with NHDF [2] and with NHDF [3] was “Not Active” in each case.
As to `Cc1cn(C2CC=C(P(=O)(O)O)OC2C)c(=O)[nH]c1=O` (stereo not given), the IC50 entry in the experiment with MRC5 [1], in the experiment on NHDF [2] and with NHDF [3] was “Not Active” each time.
For `CC1OC(P(=O)(O)O)=CCC1n1ccc(N)nc1=O` (stereo not given), the CC50 in the experiment on NHDF [4] was over 1000 µM. In addition, the Selectivity ratio in experiment [7] is over 3.3. In addition, the IC50 with NHDF [5] was 300 µM; in the experiment on MRC5 [6], over 400 µM.
As to `Cc1cn(C2CC=C(P(=O)(O)O)OC2CO)c(=O)[nH]c1=O` (stereo not given), the IC50 result in the experiment with MRC5 [1], with NHDF [2] and in the experiment with NHDF [3] was “Not Active” throughout.
`CC1OC(P(=O)(O)O)C=CC1n1ccc(N)nc1=O` (stereo not given) registered a CC50 with NHDF [4] of over 1000 µM. Further, in experiment [7], the Selectivity ratio is over 5. Further, the IC50 in the experiment on NHDF [5] was 200 µM; in the experiment on MRC5 [6] it was over 400 µM.
In turn, `Nc1ccn([C@@H]2CC=C(P(=O)(O)O)O[C@@H]2CO)c(=O)n1` registered a CC50 with NHDF [4] of over 1000 µM. In experiment [7], the Selectivity ratio is over 25. In addition, the IC50 with NHDF [5] was 40 µM; in the experiment on MRC5 [6], 90 µM.
As to `Cc1cn([C@@H]2C=C[C@@H](P(=O)(O)O)O[C@@H]2CO)c(=O)[nH]c1=O`, the IC50 result in the experiment on MRC5 [1], in the experiment on NHDF [2] and with NHDF [3] was “Not Active” throughout.
`Nc1nc(O)c2ncn([C@@H]3C=C[C@H](P(=O)(O)O)O[C@@H]3CO)c2n1`: the CC50 with NHDF [4] is over 1000 µM. Further, the IC50 in the experiment on NHDF [5] was over 300 µM; with MRC5 [6], 275 µM.
For the compound `Cc1cn([C@@H]2C=C[C@H](P(=O)(O)O)O[C@@H]2CO)c(=O)[nH]c1=O`, the IC50 result in the experiment with MRC5 [1], in the experiment on NHDF [2] and with NHDF [3] was “Not Active” throughout.
In the case of `Nc1ccn([C@H]2CC=C(P(=O)(O)O)O[C@H]2CO)c(=O)n1`, the IC50 result in the experiment on MRC5 [1], with NHDF [2] and in the experiment on NHDF [3] was “Not Active” in each case.
Turning to `Nc1ccn([C@H]2C=C[C@@H](P(=O)(O)O)O[C@H]2CO)c(=O)n1`, the 50% inhibitory concentration (IC50) entry in the experiment with MRC5 [1], in the experiment with NHDF [2] and in the experiment on NHDF [3] was “Not Active” each time.
The compound `Nc1ccn([C@@H]2C=C[C@H](P(=O)(O)O)O[C@@H]2CO)c(=O)n1` showed a CC50 with NHDF [4] of over 1000 µM. Besides, the Selectivity ratio in experiment [7] is over 100. For the same compound, the IC50 came out at 10 µM in the experiment on NHDF [5] and 85 µM in the experiment with MRC5 [6].
The compound `Nc1ccn(C[C@@H](CO)OCP(=O)(O)O)c(=O)n1` [CIDOFOVIR] returned a CC50 in the experiment with NHDF [4] of 200 µM. Moreover, the Selectivity ratio in experiment [7] was found to be 400. The 50% inhibitory concentration (IC50) worked out at 0.5 µM in the experiment with NHDF [5] and 10 µM in the experiment on MRC5 [6].
`Nc1ncnc2c1ncn2C1CC=C(P(=O)(O)O)OC1CO` (stereo not given) gave a CC50 with NHDF [4] of over 1000 µM. Besides, the Selectivity ratio in experiment [7] is over 11. This compound had an IC50 with NHDF [5] of 90 µM.
As for `Nc1ncnc2c1ncn2[C@@H]1C=C[C@H](P(=O)(O)O)O[C@@H]1CO`, the IC50 entry in the experiment with MRC5 [1], in the experiment with NHDF [2] and in the experiment with NHDF [3] was “Not Active” in each case.
Take `CC1OC(P(=O)(O)O)=CCC1n1cnc2c(N)ncnc21` (stereo not given): the IC50 entry with MRC5 [1], with NHDF [2] and in the experiment on NHDF [3] was “Not Active” each time.
